Data on two compounds can be found in article PMC5748279, “Novel Antitubercular 6-Dialkylaminopyrimidine Carboxamides from Phenotypic Whole-Cell High Throughput Screening of a SoftFocus Library: Structure–Activity Relationship and Target Identification Studies” (Journal of Medicinal Chemistry, 2017).

Data set [1] has as its system Mycobacterium tuberculosis (H37RvMa). The data set can be described thus: microbe, parasite or virus in culture. The data set is classed as cell-based. The conditions noted are these: for MIC99 7H9/ADC: 7H9/ADC medium; for MIC99 GAST/Fe: GAST/Fe medium.
The nature of another data set: physchem. The data set is classed as physicochemical. Here is the method:
The kinetic solubility assay was performed using a miniaturised shake flask method. 10 mM stock […]
DMSO, and to spike (1:50) duplicate aqueous samples of FaSSIF (simulating fasting state biorelevant media, pH 6.5), with a final DMSO concentration of 2%. After shaking for 2 hours at 25 °C, the solutions were filtered and analysed by means of HPLC,DAD (Agilent 1200 Rapid Resolution HPLC with a diode array detector). Best fit calibration curves were constructed using the calibration standards, which were used to determine the aqueous samples’ solubility.13
4.2) Microsomal stability
The metabolic stability assay was performed in duplicate in a 96,well micro titre plate. The test compounds (0.1 µM) were incubated individually in mouse, rat and pooled human liver […]
the cofactor NADPH (1 mM). Reactions were quenched by adding 300 µL of ice cold acetonitrile containing internal standard (carbamazepine, 0.0236 µg/mL). Test compounds in the supernatant were analysed by means of LC,MS/MS (Agilent Rapid Resolution HPLC, AB SCIEX 4000 QTRAP MS) for the disappearance of parent compound. Metabolite searches were not conducted during the metabolic stability assay.14
4.3) Plasma protein binding (PPB) assay
The plasma protein binding assay was performed in a 96,well micro titre plate with pooled human plasma, spiked with test compound (5 µM). An aliquot was immediately removed and quenched using ice cold acetonitrile containing internal standard (carbamazepine, 0.0236 µg/mL), and placed in the freezer. This served as the total concentration sample. After pre,incubation (37 °C for 1 hour) duplicate aliquots of the spiked plasma were transferred to ultra,centrifugation tubes, […]

The next data set has as its system Vero cell lines. The data set is classed as cell-based, African green monkey. The conditions noted are these: read-out: Cytotoxicity (IC50 on Vero cell lines). Here is the method: chemosensitivity. […]. Thus only viable cells
formazan. Formazan crystals are dissolved in DMSO. The test samples were tested in triplicate on
experiment. […] Emetine was used
as the reference drug in all experiments. The initial concentration of emetine was 100 µg/mL,
lowest being 0.001 µg/mL. […] The
the cell viability (data not shown).
GraphPad Prism v.4 software.
expressing the full length hERG channel. Single cell ionic currents were measured in the […]

For data set [2], the system named is PrecA-LUX reporter (genotoxic compounds). The data set is classed as cell-based. The conditions noted are these: luminescence over 7 days, CIPRO control.
Data set [3] has as its system cytochrome bd oxidase knockout mutant strain (cydKO). Format: cell-based. The conditions noted are these: 7H9 GLU ADC medium.
Data set [4] relates to PiniB-LUX reporter (Mtb cell wall biosynthesis). Format: cell-based. The conditions noted are these: luminescence over 7 days, INH control.

Entries after “also recorded” stand apart in the source; their conditions may differ.

One may read the kinetic solubility as the concentration staying in solution when a stock, usually in DMSO, is diluted into the medium. The term IC50 denotes the concentration that gives 50% inhibition. Regarding “N-(4-(4-Acetylpiperazin-1-yl)phenyl)-6-(methyl((6-(trifluoromethyl)pyridin-3-yl)methyl)amino)pyrimidine-4-carboxamide [Compound 44]”, in data set [1], the “MIC99 7H9/ADC” value amounted to 4.7 µM and the “MIC99 GAST/Fe” value is 2.3 µM. In data set [1] (supplementary csv), the “MIC99 7H9/ADC” value was 4.7 æM and the “MIC99 GAST/Fe” value was 2.3 æM. Further, the MIC in data set [1] (medium not stated) is less than 5 µM. The same compound returned a solubility (kinetic) at 2 h in “physchem” (pH 7.4) of less than 5 µM. In addition, the Solubility in the data set “physchem” (supplementary csv) is <5 æM. For the same compound, in the data set with Vero cell lines, the IC50 is more than 50 µM.
For the compound `COc1ccc(NC(=O)c2cc(N(C)Cc3ccccc3)ncn2)cc1` [Compound 1, 6-(Benzyl(methyl)amino)-N-(4-methoxyphenyl)pyrimidine-4-carboxamide], the PrecA-LUX reporter response entry in data set [2] is on record as “delayed (Day 3 onwards) induction of luminescence”. The “Δcyd 7H9 GLU ADC MIC99” value in data set [3] was more than 20 µM. The PiniB-LUX reporter response entry in data set [4] is “did not elicit a positive response; also recorded: no response”.
